Reference: patent US20160046618A1, “Cyclopropyl Fused Thiazin-2-Amine Compounds as Beta-Secretase Inhibitors and Methods of Use” (AMGEN INC., priority 2014, published 2016)
Like-named read-outs stand apart in the source and are kept apart here.

Tests used:
[1] = target: human recombinant BACE2 (Homo sapiens (Human), UniProt Q9Y5Z0); test: In vitro enzymatic BACE2 FRET assay; format: biochemical; settings: read-out: IC50 IP (μM) BACE2 enzyme
Summary of the method: (§1)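 FRET cleavage assay using Ni-NTA-purified recombinant protease and 50 nM quenched peptide substrate, 1 h. Stopped by neutralising with Tris; fluorescence at 488/590 nm.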

[2] = target: human recombinant BACE1 (Homo sapiens (Human), UniProt P56817); test: In vitro enzymatic BACE1 FRET assay; format: biochemical; settings: read-out: IC50 IP (μM) BACE1 enzyme
Sequence of human recombinant BACE1 (P56817 46-501): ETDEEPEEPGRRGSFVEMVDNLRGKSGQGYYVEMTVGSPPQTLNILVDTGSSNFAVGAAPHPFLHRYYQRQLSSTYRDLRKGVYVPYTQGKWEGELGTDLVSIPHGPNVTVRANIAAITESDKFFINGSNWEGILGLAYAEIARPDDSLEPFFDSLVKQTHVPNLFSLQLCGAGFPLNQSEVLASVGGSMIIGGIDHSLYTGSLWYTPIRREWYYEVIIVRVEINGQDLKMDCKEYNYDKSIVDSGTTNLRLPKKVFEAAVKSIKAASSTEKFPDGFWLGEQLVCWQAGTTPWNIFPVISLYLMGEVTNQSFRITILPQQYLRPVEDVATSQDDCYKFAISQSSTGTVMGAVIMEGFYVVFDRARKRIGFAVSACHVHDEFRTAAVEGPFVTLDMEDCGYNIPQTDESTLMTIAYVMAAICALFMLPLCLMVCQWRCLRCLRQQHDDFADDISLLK
Summary of the method: as §1

[3] = system: Aβ40 in conditioned medium of cells stably expressing Amyloid Precursor Protein (APP); test: In vitro BACE-1 cell-based assay (Aβ40 sandwich ELISA); settings: read-out: IC50 IP (μM) BACE1 cell
Summary of the method: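 APP-stable cells, pre-cultured 24 h at 37° C in DMEM/10% FBS, were treated 24 h with compound in a 10-point series starting at 100 μM or 10 μM (0.1% DMSO final). Secreted Aβ40 in conditioned medium was measured by pAb40/biotin-6E10 sandwich ELISA with Europium time-resolved fluorescence; IC50 from percent inhibition versus concentration.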

[4] = target: Recombinant Cat D (Homo sapiens (Human), UniProt P07339); test: In vitro enzymatic Cathepsin D (Cat D) FRET assay; format: biochemical; settings: read-out: IC50 IP (μM) CatD
Sequence of Recombinant Cat D (P07339 65-412): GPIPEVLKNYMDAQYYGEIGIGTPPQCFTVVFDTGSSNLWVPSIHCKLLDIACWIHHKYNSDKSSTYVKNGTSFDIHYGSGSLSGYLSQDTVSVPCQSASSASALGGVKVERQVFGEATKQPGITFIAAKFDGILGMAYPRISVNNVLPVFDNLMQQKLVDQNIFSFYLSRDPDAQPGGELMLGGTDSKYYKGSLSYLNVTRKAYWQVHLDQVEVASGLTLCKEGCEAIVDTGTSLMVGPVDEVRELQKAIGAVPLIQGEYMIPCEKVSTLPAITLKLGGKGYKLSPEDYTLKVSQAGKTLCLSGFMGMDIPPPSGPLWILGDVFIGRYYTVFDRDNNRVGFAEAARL
Summary of the method: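 Human Cat D expressed in CHO cells was incubated for one hour in 0.05 M citrate pH 3.5, 5 mM CHAPS, 10% DMSO final, with 20 nM quenched FRET peptide substrate. Reactions were stopped with Tris buffer raising pH to neutrality. Cleavage was read as fluorescence at excitation 500 nm, emission 580 nm.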

Sequence of human recombinant BACE2 (Q9Y5Z0 63-518): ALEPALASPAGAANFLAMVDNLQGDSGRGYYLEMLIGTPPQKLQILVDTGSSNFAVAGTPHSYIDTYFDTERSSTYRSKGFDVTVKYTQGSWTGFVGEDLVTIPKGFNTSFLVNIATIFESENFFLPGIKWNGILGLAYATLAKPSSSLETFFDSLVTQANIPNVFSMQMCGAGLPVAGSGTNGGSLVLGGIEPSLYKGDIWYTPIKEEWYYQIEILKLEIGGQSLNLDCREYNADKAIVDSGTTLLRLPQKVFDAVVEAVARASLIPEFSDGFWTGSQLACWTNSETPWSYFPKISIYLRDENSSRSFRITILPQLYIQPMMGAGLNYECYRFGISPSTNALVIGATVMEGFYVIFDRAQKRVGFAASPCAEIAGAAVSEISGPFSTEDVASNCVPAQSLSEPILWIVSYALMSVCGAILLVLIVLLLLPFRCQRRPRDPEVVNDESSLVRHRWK

| IC50 [1] [µM] | IC50 [2] [µM] | IC50 [3] [µM] | IC50 [4] [µM] | IC50 ([1]; BACE2 FRET enzyme assay) [µM] | IC50 ([2]; BACE1 FRET enzyme assay) [µM] | IC50 ([3]; BACE1 cell-based assay) [µM] | IC50 ([4]; Cathepsin D FRET enzyme assay) [µM] | Structure (SMILES) |
| --- | --- | --- | --- | --- | --- | --- | --- | --- |
| 0.658 | 0.0269 | 1.14 | 94.4 |  |  |  |  | COC[C@]12C[C@H]1[C@@](C)(c1cc(Nc3nccc4cc(OCC#CC(F)(F)F)cnc34)cc(F)c1F)N=C(N)S2 [Example 741, N-(3-((1S,5S,6S)-3-amino-1-(methoxymethyl)-5-methyl-2-thia-4-azabicyclo[4.1.0]hept-3-en-5-yl)-4,5-difluorophenyl)-3-((4,4,4-trifluoro-2-butyn-1-yl)oxy)-1,7-naphthyridin-8-amine] |
| 0.0575 | 0.00315 | 0.00074 | 106 |  |  |  |  | C#CCOc1cnc(C(=O)Nc2cc(F)c(F)c([C@@]3(C)N=C(N)S[C@@]4(CN)C[C@H]43)c2)cn1 [Example 981, N-(3-((1S,5S,6S)-3-amino-1-(aminomethyl)-5-methyl-2-thia-4-azabicyclo[4.1.0]hept-3-en-5-yl)-4,5-difluorophenyl)-5-(prop-2-yn-1-yloxy)pyrazine-2-carboxamide] |
| 0.0223 | 0.012 | 0.0214 | 171 |  |  |  |  | C[C@]1(c2cc(Nc3ncnc4cc(C#N)cnc34)ccc2F)N=C(N)S[C@@]2(CO)[C@@H]1C2(F)F [Example 961, 4-((3-((1R,5S,6S)-3-amino-7,7-difluoro-1-(hydroxymethyl)-5-methyl-2-thia-4-azabicyclo[4.1.0]hept-3-en-5-yl)-4-fluorophenyl)amino)pyrido[3,2-d]pyrimidine-7-carbonitrile] |
|  |  |  |  | 0.0632 | 0.0118 | 0.0312 | 752 | N#Cc1cnc2c(Nc3ccc(F)c([C@@]4(CF)N=C(N)S[C@@]5(CF)C[C@H]54)c3)ncnc2c1 [Example 97, 4-((3-((1S,5S,6S)-3-amino-1,5-bis(fluoromethyl)-2-thia-4-azabicyclo[4.1.0]hept-3-en-5-yl)-4-fluorophenyl)amino)pyrido[3,2-d]pyrimidine-7-carbonitrile] |
| 0.00936 | 0.000528 | 0.0259 | 835 |  |  |  |  | C#CCOc1ccc(C(=O)Nc2ccc(F)c([C@@]3(CF)N=C(N)S[C@@]4(c5ocnc5C)C[C@@H]34)c2)nc1 [Example 789, N-(3-((1S,5S,6S)-3-amino-5-(fluoromethyl)-1-(4-methyl-1,3-oxazol-5-yl)-2-thia-4-azabicyclo[4.1.0]hept-3-en-5-yl)-4-fluorophenyl)-5-(2-propyn-1-yloxy)-2-pyridinecarboxamide] |
|  |  |  |  | 0.0032 | 0.00665 | 0.0056 | 3140 | C[C@]1(c2cc(NC(=O)c3ccc(Cl)cn3)cnc2F)N=C(N)S[C@@]2(CF)C[C@H]21 [Example 98, N-(5-((1S,5S,6S)-3-amino-1-(fluoromethyl)-5-methyl-2-thia-4-azabicyclo[4.1.0]hept-3-en-5-yl)-6-fluoropyridin-3-yl)-5-chloropicolinamide] |
| 0.0406 | 0.000518 | 0.00067 | 174 |  |  |  |  | C#CCOc1cnc(C(=O)Nc2cnc(OC)c([C@@]3(C)N=C(N)S[C@@]4(C(F)F)C[C@@H]34)c2)cn1 [Example 989, N-(5-((1S,5S,6S)-3-amino-1-(difluoromethyl)-5-methyl-2-thia-4-azabicyclo[4.1.0]hept-3-en-5-yl)-6-methoxy-3-pyridinyl)-5-(2-propyn-1-yloxy)-2-pyrazinecarboxamide] |
| 0.0465 | 0.00106 | 0.0323 | 1020 |  |  |  |  | COC[C@]12C[C@H]1[C@@](C)(c1cc(NC(=O)c3cnc(OCc4cc(C)on4)cn3)cc(F)c1F)N=C(N)S2 [Example 1032, N-(3-((1S,5S,6S)-3-amino-1-(methoxymethyl)-5-methyl-2-thia-4-azabicyclo[4.1.0]hept-3-en-5-yl)-4,5-difluorophenyl)-5-((5-methyl-3-isoxazolyl)methoxy)-2-pyrazinecarboxamide] |
| 0.118 | 0.0051 | 0.104 | 384 |  |  |  |  | COC[C@]12C[C@H]1[C@@](C)(c1cc(Nc3ncc(F)c4cc(OCc5ncco5)cnc34)cc(F)c1F)N=C(N)S2 [Example 950, N-(3-((1S,5S,6S)-3-amino-1-(methoxymethyl)-5-methyl-2-thia-4-azabicyclo[4.1.0]hept-3-en-5-yl)-4,5-difluorophenyl)-5-fluoro-3-(1,3-oxazol-2-ylmethoxy)-1,7-naphthyridin-8-amine] |
| 0.336 | 0.0216 | 0.0532 | > 400 |  |  |  |  | C#C[C@@H](C)Oc1cnc(C(=O)Nc2ccc(F)c([C@@]3(C)N=C(N)S[C@@]4(COC)C[C@H]43)c2)cn1 [Example 988] |
| 0.0129 | 0.00141 | 0.00723 | 439 |  |  |  |  | C#CCOc1cnc2c(Nc3ccc(F)c([C@@]4(C)N=C(N)S[C@@]5(C#N)C[C@H]54)c3)ncnc2c1 [Example 928, (1S,5S,6S)-3-amino-5-(2-fluoro-5-((7-(2-propyn-1-yloxy)pyrido[3,2-d]pyrimidin-4-yl)amino)phenyl)-5-methyl-2-thia-4-azabicyclo[4.1.0]hept-3-ene-1-carbonitrile] |
| 0.0183 | 0.000244 | 0.00122 | 73.6 |  |  |  |  | C#CCOc1cnc2c(Nc3ccc(F)c([C@@]4(C)N=C(N)S[C@@]5(C(F)F)C[C@@H]45)c3)nccc2n1 [Example 816, N-(3-((1S,5S,6S)-3-amino-1-(difluoromethyl)-5-methyl-2-thia-4-azabicyclo[4.1.0]hept-3-en-5-yl)-4-fluorophenyl)-2-(2-propyn-1-yloxy)pyrido[3,4-b]pyrazin-5-amine] |
| 0.0192 | 0.000544 | 0.00151 | 260 |  |  |  |  | C#CCOc1cnc2c(Nc3cnc(F)c([C@@]4(C)N=C(N)S[C@@]5(C(F)F)C[C@@H]45)c3)nccc2n1 [Example 653, N-(5-((1S,5S,6S)-3-amino-1-(difluoromethyl)-5-methyl-2-thia-4-azabicyclo[4.1.0]hept-3-en-5-yl)-6-fluoro-3-pyridinyl)-2-(2-propyn-1-yloxy)pyrido[3,4-b]pyrazin-5-amine] |
| < 0.00203 | 0.000318 | 0.00152 | 166 |  |  |  |  | C#CCOc1cnc(C(=O)Nc2ccc(F)c([C@@]3(CF)N=C(N)S[C@@]4(c5ocnc5C)C[C@@H]34)c2)cn1 [Example 784, N-(3-((1S,5S,6S)-3-amino-5-(fluoromethyl)-1-(4-methyloxazol-5-yl)-2-thia-4-azabicyclo[4.1.0]hept-3-en-5-yl)-4-fluorophenyl)-5-(prop-2-yn-1-yloxy)pyrazine-2-carboxamide] |
| 0.0237 | 0.000975 | 0.000956 | > 400 |  |  |  |  | C[C@]1(c2cc(NC(=O)c3cnc(OCc4ncco4)cn3)cnc2F)N=C(N)S[C@@]2(CF)C[C@H]21 [Example 607, N-(5-((1S,5S,6S)-3-amino-1-(fluoromethyl)-5-methyl-2-thia-4-azabicyclo[4.1.0]hept-3-en-5-yl)-6-fluoro-3-pyridinyl)-5-(1,3-oxazol-2-ylmethoxy)-2-pyrazinecarboxamide] |
| < 0.00203 | 0.00073 | 0.000856 | 518 |  |  |  |  | NC1=N[C@](CF)(c2cc(NC(=O)c3ccc(Cl)cn3)ccc2F)[C@@H]2C[C@]2(/C=C/C(=O)N2CCOCC2)S1 [Example 764, N-(3-((1R,5S,6S)-3-amino-5-(fluoromethyl)-1-((E)-3-morpholino-3-oxoprop-1-en-1-yl)-2-thia-4-azabicyclo[4.1.0]hept-3-en-5-yl)-4-fluorophenyl)-5-chloropicolinamide] |
| 0.0314 | 0.0625 | 0.0517 | > 400 |  |  |  |  | C[C@]1(c2cc(Nc3nccc4[nH]c(=O)cnc34)cnc2F)N=C(N)S[C@H]2C[C@H]21 [Example 638, 5-((5-((1S,5S,6S)-3-amino-5-methyl-2-thia-4-azabicyclo[4.1.0]hept-3-en-5-yl)-6-fluoropyridin-3-yl)amino)pyrido[3,4-b]pyrazin-2(1H)-one] |
| 0.498 | > 0.016 | 0.01 | > 400 |  |  |  |  | COC[C@]12C[C@H]1[C@@](C)(c1cc(NC(=O)c3cnc(OCC4CCO4)cn3)ccc1F)N=C(N)S2 (stereo partly drawn) [Example 1058, N-(3-((1S,5S,6S)-3-amino-1-(methoxymethyl)-5-methyl-2-thia-4-azabicyclo[4.1.0]hept-3-en-5-yl)-4-fluorophenyl)-5-(oxetan-2-ylmethoxy)pyrazine-2-carboxamide] |
|  |  |  |  | 0.0138 | 0.00046 | 0.00092 | 105 | C#CCOc1cnc(C(=O)Nc2cc(F)c(F)c([C@@]3(CF)N=C(N)S[C@@]4(CO)C[C@H]43)c2)cn1 [Example 83, N-(3-((1S,5S,6S)-3-amino-5-(fluoromethyl)-1-(hydroxymethyl)-2-thia-4-azabicyclo[4.1.0]hept-3-en-5-yl)-4,5-difluorophenyl)-5-(2-propyn-1-yloxy)-2-pyrazinecarboxamide] |
